Our source for the inhibition values is patent publication US8153795B2, “Substituted 1-oxa-3,8-diazaspiro[4.5]-decan-2-one-compounds and the use thereof for producing drugs” (Gruenenthal GmbH, priority 2005, dated 2012).

The experiment concerns the target T1, 5-HT transporter (Rattus norvegicus, UniProt P31652).
T1 construct: from tissue; host or cells: rat brain synaptosomes (P2 fraction) from medulla and pons
Kind of experiment: 5-HT uptake inhibition in rat brain synaptosomes (medulla and pons), [3H]-5-HT. It counts as biochemical. The text has this:
a) Method for Determining Noradrenalin and 5-HT Uptake Inhibition:
Synaptosomes from rat brain regions are freshly isolated for in vitro studies, as described in the publication “The isolation of nerve endings from brain” by E. G. Gray and V. P. Whittaker, J. Anatomy 96, pages 79-88, 1962. The corresponding literature description is hereby introduced as a reference and is deemed to be part of the disclosure.
The tissue (hypothalamus for the determination of noradrenalin uptake inhibition and medulla and pons for the determination of 5-HT uptake inhibition) is homogenised in ice-cooled 0.32 M sucrose (100 mg of tissue/1 mL) in a glass homogeniser with Teflon pestle using five complete up and down strokes at 840 revolutions/minute.
The homogenate is centrifuged at 4° C. for 10 minutes at 1000 g. After subsequent centrifugation at 17000 g for 55 minutes, the synaptosomes (P2 fraction) are obtained, which are resuspended in 0.32 M […] (0.5 mL/100 mg of original weight).
The particular uptake is measured in a 96-well microtitre plate. The volume is 250 μl and the incubation proceeds at room temperature (approx. 20-25° C.) under an O2 atmosphere.
The incubation time is 7.5 minutes for [^3H]-NA and 5 minutes for [^3H]-5-HT. The 96 samples are then filtered through a Unifilter GF/B® microtitre plate (Packard) and washed with 200 mL of incubated buffer using a “Brabdel MPXRI-96T Cell-Harvester”. The Unifilter GF/B plate is dried for 1 hour at 55° C. The plate is then sealed with a Back Seal® (Packard) and 35 μl of scintillation fluid are added per well (Ultima Gold®, Packard). After sealing with a top Seal® (Packard) and establishing an equilibrium (around 5 hours), radioactivity is determined in a “Trilux 1450 Microbeta” (Wallac).
The quantity of protein used in the above determination corresponds to the values known from the literature, as for example described in “Protein measurement with the folin phenol reagent”, Lowry et al., J. Biol. Chem., 193, 265-275, 1951.
A detailed description of the method may additionally be found in the literature, for example in M. Ch. Frink, H.-H. Hennies, W. Engelberger, M. Haurand and B. Wilffert (1996) Arzneim.-Forsch./Drug Res. 46 (III), 11, 1029-1036.

T1 sequence (P31652 whole entry): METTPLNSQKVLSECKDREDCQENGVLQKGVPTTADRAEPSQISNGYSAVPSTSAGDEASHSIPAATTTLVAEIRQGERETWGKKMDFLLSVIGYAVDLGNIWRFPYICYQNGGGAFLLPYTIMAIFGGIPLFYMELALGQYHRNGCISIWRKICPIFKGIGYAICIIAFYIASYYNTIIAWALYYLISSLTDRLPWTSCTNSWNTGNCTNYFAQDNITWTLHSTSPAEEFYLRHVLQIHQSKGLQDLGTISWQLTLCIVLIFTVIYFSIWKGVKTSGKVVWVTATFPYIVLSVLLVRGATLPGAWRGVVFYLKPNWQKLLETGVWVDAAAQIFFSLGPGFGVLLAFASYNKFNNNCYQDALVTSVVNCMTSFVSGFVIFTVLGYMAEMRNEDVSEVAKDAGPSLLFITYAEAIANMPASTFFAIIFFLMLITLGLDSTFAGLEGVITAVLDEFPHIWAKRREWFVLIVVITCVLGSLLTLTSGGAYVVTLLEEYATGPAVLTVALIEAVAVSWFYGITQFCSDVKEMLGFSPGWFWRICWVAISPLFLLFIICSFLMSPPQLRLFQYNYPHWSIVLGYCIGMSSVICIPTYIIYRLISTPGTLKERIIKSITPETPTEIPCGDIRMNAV

Usually inhibition stands for how much of the control response was suppressed. In the case of `Cc1ccc2ccccc2c1CN1CCC2(CC1)CN(Cc1ccccc1C(F)(F)F)C(=O)O2` [Example 83, 8-(2-methylnaphthalen-1-ylmethyl)-3-(2-trifluoromethylbenzyl)-1-oxa-3,8-diazaspiro[4.5]decan-2-one], 10 µM produced 41% inhibition.

Consider `COc1ccc([N+](=O)[O-])cc1CN1CC2(CCN(C(=O)Cc3ccc(OC)c(OC)c3)CC2)OC1=O` [Example 150, 8-[2-(3,4-dimethoxyphenyl)acetyl]-3-(2-methoxy-5-nitrobenzyl)-1-oxa-3,8-diazaspiro[4.5]decan-2-one], for which the inhibition at 10 µM stood at 84%. For the molecule `Cc1ccc(CN2CC3(CCN(C(=S)Nc4c(F)c(F)c(F)c(F)c4F)CC3)OC2=O)cc1` [Example 1, 3-(4-methylbenzyl)-2-oxo-1-oxa-3,8-diazaspiro[4.5]decane-8-carbothioic acid pentafluorophenylamide], the inhibition at 10 µM was found to be 66%.

As to `Cc1cc(C)cc(CN2CC3(CCN(C(=O)c4c(-c5ccccc5Cl)noc4C)CC3)OC2=O)c1` [Example 101, 8-[3-(2-chlorophenyl)-5-methylisoxazole-4-carbonyl]-3-(3,5-dimethylbenzyl)-1-oxa-3,8-diazaspiro[4.5]decan-2-one], 10 µM produced 84% inhibition. Then `O=C1OC2(CCN(C(=O)c3ccc(-c4ccccc4)cc3)CC2)CN1Cc1ccc(I)cc1` [Example 118, 8-(biphenyl-4-carbonyl)-3-(4-iodobenzyl)-1-oxa-3,8-diazaspiro[4.5]decan-2-one], with 66%. Under `N#Cc1ccc(CN2CC3(CCN(S(=O)(=O)c4ccc5c(c4)CN(C(=O)C(F)(F)F)CC5)CC3)OC2=O)cc1` [Example 142, 4-{2-oxo-8-[2-(2,2,2-trifluoroacetyl)-1,2,3,4-tetrahydroisoquinoline-7-sulfonyl]-1-oxa-3,8-diazaspiro[4.5]dec-3-ylmethyl}benzonitrile] stands 67%; under `O=C(Nc1cc(Cl)ccc1Cl)N1CCC2(CC1)CN(Cc1ccccc1-c1ccccc1)C(=O)O2` [Example 25, 3-biphenyl-2-ylmethyl-2-oxo-1-oxa-3,8-diazaspiro[4.5]decane-8-carboxylic acid (2,5-dichlorophenyl)amide], 53%. Then `Cc1cc(C)cc(CN2CC3(CCN(C(=O)c4c(F)ccc(C)c4F)CC3)OC2=O)c1` [Example 132, 8-(2,6-difluoro-3-methylbenzoyl)-3-(3,5-dimethylbenzyl)-1-oxa-3,8-diazaspiro[4.5]decan-2-one], with 65%.

`CC(=O)OC(C(=O)N1CCC2(CC1)CN(Cc1cc(C)cc(C)c1)C(=O)O2)c1ccccc1` (stereo not drawn) [Example 105, acetic acid 2-[3-(3,5-dimethylbenzyl)-2-oxo-1-oxa-3,8-diazaspiro[4.5]dec-8-yl]-2-oxo-1-phenylethyl ester] showed an inhibition at 10 µM of 74%. Then `N#Cc1ccc(CN2CC3(CCN(C(=O)C4CC4c4ccccc4)CC3)OC2=O)cc1` (stereo not drawn) [Example 106, 4-[2-oxo-8-(2-phenylcyclopropanecarbonyl)-1-oxa-3,8-diazaspiro[4.5]dec-3-ylmethyl]benzonitrile], with 63%; and `O=C1OC2(CCN(C(=S)NCc3ccccc3)CC2)CN1Cc1ccc(F)c(F)c1` [Example 11, 3-(3,4-difluorobenzyl)-2-oxo-1-oxa-3,8-diazaspiro[4.5]decane-8-carbothioic acid benzylamide], with 58%; and `O=C(CN1CCC2(CC1)CN(Cc1ccc(SC(F)(F)F)cc1)C(=O)O2)Nc1csc(C(F)(F)F)c1-c1ccccc1` [Example 85, 2-[2-oxo-3-(4-trifluoromethylsulfanylbenzyl)-1-oxa-3,8-diazaspiro[4.5]dec-8-yl]-N-(4-phenyl-5-trifluoromethylthiophen-3-yl)acetamide], with 90%. Under `COc1cccc(CC(=O)N2CCC3(CC2)CN(Cc2cc(C)cc(C)c2)C(=O)O3)c1` [Example 113, 3-(3,5-dimethylbenzyl)-8-[2-(3-methoxyphenyl)acetyl]-1-oxa-3,8-diazaspiro[4.5]decan-2-one] stands 68%. Under `O=C1OC2(CCN(C(=O)c3cccnc3Oc3ccccc3)CC2)CN1Cc1ccc(F)c(F)c1` [Example 146, 3-(3,4-difluorobenzyl)-8-(2-phenoxypyridine-3-carbonyl)-1-oxa-3,8-diazaspiro[4.5]decan-2-one] stands 63%. The molecule `O=C1OC2(CCN(C(=O)c3cccnc3Oc3ccccc3)CC2)CN1Cc1cccc(Br)c1` [Example 144, 3-(3-bromobenzyl)-8-(2-phenoxypyridine-3-carbonyl)-1-oxa-3,8-diazaspiro[4.5]decan-2-one] had an inhibition at 10 µM of 81%. Under `Cc1cc(C)cc(CN2CC3(CCN(C(=O)c4cccs4)CC3)OC2=O)c1` [Example 130, 3-(3,5-dimethylbenzyl)-8-(thiophene-2-carbonyl)-1-oxa-3,8-diazaspiro[4.5]decan-2-one] stands 70%; under `COc1ccc([N+](=O)[O-])cc1CN1CC2(CCN(C(=S)NCC3CCCCC3)CC2)OC1=O` [Example 21, 3-(2-methoxy-5-nitrobenzyl)-2-oxo-1-oxa-3,8-diazaspiro[4.5]decane-8-carbothioic acid cyclohexylmethylamide], 55%; under `N#Cc1cccc(CN2CC3(CCN(C(=S)NCc4ccc(Cl)cc4)CC3)OC2=O)c1` [Example 22, 3-(3-cyanobenzyl)-2-oxo-1-oxa-3,8-diazaspiro[4.5]decane-8-carbothioic acid 4-chlorobenzylamide], 48%. Then `Cc1ccc(CN2CC3(CCN(Cc4ccc5ccccc5c4Br)CC3)OC2=O)cc1` [Example 90, 8-(1-bromonaphthalen-2-ylmethyl)-3-(4-methylbenzyl)-1-oxa-3,8-diazaspiro[4.5]decan-2-one], with 77%. Then `COc1cccc(CC(=O)N2CCC3(CC2)CN(Cc2ccc4ccccc4c2)C(=O)O3)c1` [Example 141, 8-[2-(3-methoxyphenyl)acetyl]-3-naphthalen-2-ylmethyl-1-oxa-3,8-diazaspiro[4.5]decan-2-one], with 78%; and `N#Cc1ccccc1CN1CC2(CCN(C(=O)c3ccc([N+](=O)[O-])cc3Cl)CC2)OC1=O` [Example 151, 2-[8-(2-chloro-4-nitrobenzoyl)-2-oxo-1-oxa-3,8-diazaspiro[4.5]dec-3-ylmethyl]benzonitrile], with 71%. `CCSc1ncccc1C(=O)N1CCC2(CC1)CN(Cc1cccc(OC)c1)C(=O)O2` [Example 111, 8-(2-ethylsulfanylpyridine-3-carbonyl)-3-(3-methoxybenzyl)-1-oxa-3,8-diazaspiro[4.5]decan-2-one] registered an inhibition at 10 µM of 71%. Then `N#Cc1ccccc1CN1CC2(CCN(Cc3ccc(Cl)cc3)CC2)OC1=O` [Example 82, 2-[8-(4-chlorobenzyl)-2-oxo-1-oxa-3,8-diazaspiro[4.5]dec-3-ylmethyl]benzonitrile], with 56%; and `N#Cc1cccc(NC(=O)N2CCC3(CC2)CN(Cc2ccc(SC(F)(F)F)cc2)C(=O)O3)c1` [Example 38, 2-oxo-3-(4-trifluoromethylsulfanylbenzyl)-1-oxa-3,8-diazaspiro[4.5]decane-8-carboxylic acid (3-cyanophenyl)amide], with 52%.
